The test system of data set [1] is Bovine viral diarrhea virus 1. Kind of data set: Antiviral activity against Bovine viral diarrhea virus infected in human HuH7 cells assessed as inhibition of viral replication by luciferase reporter gene assay. The settings on record: Bovine viral diarrhea virus isolates and strains, Huh-7. Type of data set: functional, organism-based. For orientation: Reporter assays use an easily measured gene product as a stand-in for the process of interest.

Data set [2] in a line: Cytotoxicity against human HuH7 cells after 72 hrs by Alamar blue assay. Type of data set: cell-based, Huh-7. Background: Alamar Blue is a resazurin reagent that responds to reducing activity.
A further data set relates to Hepatitis C virus. Kind of data set: Antiviral activity against HCV1b harboring NS5B infected in human HuH7 cells assessed as inhibition of viral replication after 72 hrs by FRET assay. Type of data set: functional, organism-based, Hepacivirus hominis. Conditions: genotype 1b, Huh-7, 72 h.
A short description of data set [3]: Solubility of the compound in phosphate buffer at pH 6.5. In kind it is physicochemical.

As a reminder, the EC50 is the concentration giving half of the maximal effect. What is called CC50 is the concentration that lowers cell viability or growth by half. A low value points to greater toxicity to the cells. A word on the solubility: it is how much of the substance goes into solution per volume.

SMILES strings stand for the structures. Values after ≈ are worked out from the molar mass of the structure shown.

Consider `O=C(Nc1ccc(/C=C/c2ccc(NC(=O)[C@@H]3CCCN3C(=O)Cc3ccccc3)cc2)cc1)[C@@H]1CCCN1C(=O)Cc1ccccc1`, for which the EC50 in data set [1] is more than 10 µM; in the data set with Hepatitis C virus, 0.09 nM. The compound further registered a cytotoxic concentration (CC50) at 72 h in data set [2] of more than 10 µM.

Regarding `O=C(Nc1ccc(-c2ccc(NC(=O)[C@@H]3CCCN3C(=O)Cc3ccccc3)cc2)cc1)[C@@H]1CCCN1C(=O)Cc1ccccc1`, the EC50 in the data set with Hepatitis C virus was 205 nM.

Regarding `O=C(Nc1ccc(CN2CCc3cc(NC(=O)[C@@H]4CCCN4C(=O)Cc4ccccc4)ccc3C2)cc1)[C@@H]1CCCN1C(=O)Cc1ccccc1`, the EC50 in data set [1] was more than 10 µM; in the data set on Hepatitis C virus, 159 nM. Also, in data set [2], the CC50 at 72 h is more than 10 µM.

With `O=C(Nc1cccc(CN2CCc3ccc(NC(=O)[C@@H]4CCCN4C(=O)Cc4ccccc4)cc3C2)c1)[C@@H]1CCCN1C(=O)Cc1ccccc1`, the figures for the EC50 (in data set [1]; in the data set with Hepatitis C virus) were more than 10 µM and 3890 nM, respectively. Besides, the CC50 at 72 h in data set [2] was more than 10 µM.

Regarding `O=C(Nc1ccc(-c2nnc(-c3ccc(NC(=O)[C@@H]4CCCN4C(=O)Cc4ccccc4)cc3)o2)cc1)[C@@H]1CCCN1C(=O)Cc1ccccc1`, the EC50 in data set [1] was more than 10 µM; in the data set on Hepatitis C virus it was 149 nM. The same compound yielded a CC50 at 72 h in data set [2] of more than 10 µM.

On to `O=C(Nc1ccc(-c2cnc(-c3ccc(NC(=O)[C@@H]4CCCN4C(=O)Cc4ccccc4)cc3)o2)cc1)[C@@H]1CCCN1C(=O)Cc1ccccc1`, for which the EC50 was more than 10 µM in data set [1] and 2.38 nM in the data set on Hepatitis C virus. In data set [2], this compound registered a CC50 at 72 h of more than 10 µM.

Take `O=C(Nc1ccc(-c2coc(-c3ccc(NC(=O)[C@@H]4CCCN4C(=O)Cc4ccccc4)cc3)n2)cc1)[C@@H]1CCCN1C(=O)Cc1ccccc1`: the EC50 in data set [1] was more than 10 µM; with Hepatitis C virus, 1.32 nM. This compound came in with a CC50 at 72 h in data set [2] of more than 10 µM.

Regarding `O=C(Nc1ccc(-c2ccc(-c3ccc(NC(=O)[C@@H]4CCCN4C(=O)Cc4ccccc4)cc3)s2)cc1)[C@@H]1CCCN1C(=O)Cc1ccccc1`, the EC50 in data set [1] was more than 10 µM; in the data set on Hepatitis C virus it was 14.7 nM. Besides, in data set [2], the cytotoxic concentration (CC50) at 72 h is more than 10 µM.

Regarding `O=C(Nc1ccc(-c2c[nH]c(-c3ccc(NC(=O)[C@@H]4CCCN4C(=O)Cc4ccccc4)cc3)n2)cc1)[C@@H]1CCCN1C(=O)Cc1ccccc1`, the EC50 in data set [1] was more than 10 µM; in the data set on Hepatitis C virus, 67.2 nM. Also, the CC50 at 72 h in data set [2] is more than 10 µM.

Regarding `O=C(Nc1ccc(-c2cc(-c3ccc(NC(=O)[C@@H]4CCCN4C(=O)Cc4ccccc4)cc3)[nH]n2)cc1)[C@@H]1CCCN1C(=O)Cc1ccccc1`, the EC50 in data set [1] was more than 10 µM; in the data set on Hepatitis C virus, 0.71 nM. Further, the CC50 at 72 h in data set [2] was more than 10 µM.

On to `Cn1nc(-c2ccc(NC(=O)[C@@H]3CCCN3C(=O)Cc3ccccc3)cc2)cc1-c1ccc(NC(=O)[C@@H]2CCCN2C(=O)Cc2ccccc2)cc1`, for which the EC50 in data set [1] is more than 10 µM; in the data set on Hepatitis C virus, 181 nM. The same compound had a CC50 at 72 h in data set [2] of more than 10 µM.

For the compound `O=C(Nc1ccc(/C=C\c2ccc(NC(=O)[C@@H]3CCCN3C(=O)Cc3ccccc3)cc2)cc1)[C@@H]1CCCN1C(=O)Cc1ccccc1`, the results for the concentration giving a half-maximal response (EC50) (in data set [1]; with Hepatitis C virus) were more than 10 µM and 12.4 nM, respectively. The same compound had a CC50 at 72 h in data set [2] of more than 10 µM.

For the compound `O=C(Nc1ccc([C@H]2C[C@@H]2c2ccc(NC(=O)[C@@H]3CCCN3C(=O)Cc3ccccc3)cc2)cc1)[C@@H]1CCCN1C(=O)Cc1ccccc1`, the concentration in solution in data set [3] (solubility) came to 3 µg/mL (≈ 4.58 µM). Besides, the EC50 was more than 10 µM in data set [1] and 5.66 nM in the data set with Hepatitis C virus. This compound also registered a CC50 at 72 h in data set [2] of more than 10 µM.

Consider `O=C(Nc1ccc([C@H]2C[C@H]2c2ccc(NC(=O)[C@@H]3CCCN3C(=O)Cc3ccccc3)cc2)cc1)[C@@H]1CCCN1C(=O)Cc1ccccc1`, for which the EC50 in data set [1] is more than 10 µM; in the data set on Hepatitis C virus it was 796 nM. The same compound had a half-maximal cytotoxic concentration (CC50) at 72 h in data set [2] of more than 10 µM.

Turning to `O=C(Nc1ccc(NC(=O)[C@@H]2CCCN2C(=O)Cc2ccccc2)cc1)c1ccc(NC(=O)[C@@H]2CCCN2C(=O)Cc2ccccc2)cc1`, the concentration for a half-maximal effect (EC50) in data set [1] was more than 10 µM; in the data set on Hepatitis C virus it was 11 nM. In addition, the CC50 at 72 h in data set [2] is more than 10 µM.

As to `CN(C(=O)c1ccc(NC(=O)[C@@H]2CCCN2C(=O)Cc2ccccc2)cc1)c1ccc(NC(=O)[C@@H]2CCCN2C(=O)Cc2ccccc2)cc1`, the figures for the EC50 (in data set [1]; in the data set on Hepatitis C virus) were more than 10 µM and 6250 nM, respectively. The CC50 at 72 h in data set [2] was more than 10 µM.

Consider `O=C(Nc1ccc(N2CCc3cc(NC(=O)[C@@H]4CCCN4C(=O)Cc4ccccc4)ccc3C2)nc1)[C@@H]1CCCN1C(=O)Cc1ccccc1`, for which the EC50 in data set [1] is more than 10 µM; in the data set with Hepatitis C virus, 1.74 nM. Also, in data set [2], the cytotoxic concentration (CC50) at 72 h was more than 10 µM.

For `O=C(Nc1ccc(-c2nc3ccc(NC(=O)[C@@H]4CCCN4C(=O)Cc4ccccc4)cc3[nH]2)cc1)[C@@H]1CCCN1C(=O)Cc1ccccc1`, the results for the EC50 (in data set [1]; with Hepatitis C virus) were more than 10 µM and 1050 nM, respectively. The compound further displayed a CC50 at 72 h in data set [2] of more than 10 µM.

As to `O=C(Nc1ccc(CCc2ccc(NC(=O)[C@@H]3CCCN3C(=O)Cc3ccccc3)cc2)cc1)[C@@H]1CCCN1C(=O)Cc1ccccc1`, the EC50 in data set [1] was more than 10 µM; in the data set with Hepatitis C virus, 6.01 nM. This compound registered a CC50 at 72 h in data set [2] of more than 10 µM.

As to `O=C(Nc1ccc(COc2ccc(NC(=O)[C@@H]3CCCN3C(=O)Cc3ccccc3)cc2)cc1)[C@@H]1CCCN1C(=O)Cc1ccccc1`, the results for the EC50 (in data set [1]; in the data set on Hepatitis C virus) were more than 10 µM and 97.8 nM, respectively. In data set [2], this compound came in with a CC50 at 72 h of more than 10 µM.

For `O=C(Nc1ccc(C#Cc2ccc(NC(=O)[C@@H]3CCCN3C(=O)Cc3ccccc3)cc2)cc1)[C@@H]1CCCN1C(=O)Cc1ccccc1`, the EC50 in data set [1] is more than 10 µM; with Hepatitis C virus, 6.24 nM. In data set [2], this compound displayed a cytotoxic concentration (CC50) at 72 h of more than 10 µM.

As for `O=C(Nc1ccc(-c2nc[nH]c2-c2ccc(NC(=O)[C@@H]3CCCN3C(=O)Cc3ccccc3)cc2)cc1)[C@@H]1CCCN1C(=O)Cc1ccccc1`, the EC50 is more than 10 µM in data set [1] and 20.9 nM in the data set with Hepatitis C virus. In data set [2], this compound had a CC50 at 72 h of more than 10 µM.

For `O=C(Nc1ccc(-c2nn[nH]c2-c2ccc(NC(=O)[C@@H]3CCCN3C(=O)Cc3ccccc3)cc2)cc1)[C@@H]1CCCN1C(=O)Cc1ccccc1`, the half-maximal effective concentration (EC50) in data set [1] is more than 10 µM; in the data set with Hepatitis C virus it was 8.18 nM. In addition, in data set [2], the CC50 at 72 h is more than 10 µM.

Regarding `O=C(Nc1ccc(-c2c[nH]nc2-c2ccc(NC(=O)[C@@H]3CCCN3C(=O)Cc3ccccc3)cc2)cc1)[C@@H]1CCCN1C(=O)Cc1ccccc1`, the values for the EC50 (in data set [1]; in the data set on Hepatitis C virus) were more than 10 µM and 4.57 nM, respectively. The same compound came in with a CC50 at 72 h in data set [2] of more than 10 µM.

Regarding `O=C(Nc1ccc(Cc2ccc(NC(=O)[C@@H]3CCCN3C(=O)Cc3ccccc3)cc2)cc1)[C@@H]1CCCN1C(=O)Cc1ccccc1`, the results for the EC50 (in data set [1]; in the data set with Hepatitis C virus) were more than 10 µM and 1700 nM, respectively. In addition, the CC50 at 72 h in data set [2] is more than 10 µM.

For the compound `O=C(Nc1ccc(Oc2ccc(NC(=O)[C@@H]3CCCN3C(=O)Cc3ccccc3)cc2)cc1)[C@@H]1CCCN1C(=O)Cc1ccccc1`, the EC50 in data set [1] was more than 10 µM; in the data set on Hepatitis C virus, 1990 nM. In data set [2], the CC50 at 72 h was more than 10 µM.

For the compound `O=C(c1ccc(NC(=O)[C@@H]2CCCN2C(=O)Cc2ccccc2)cc1)c1ccc(NC(=O)[C@@H]2CCCN2C(=O)Cc2ccccc2)cc1`, the values for the EC50 (in data set [1]; in the data set on Hepatitis C virus) were more than 10 µM and 3950 nM, respectively. This compound also yielded a CC50 at 72 h in data set [2] of more than 10 µM.

In the case of `CC(C)(c1ccc(NC(=O)[C@@H]2CCCN2C(=O)Cc2ccccc2)cc1)c1ccc(NC(=O)[C@@H]2CCCN2C(=O)Cc2ccccc2)cc1`, the EC50 is more than 10 µM in data set [1] and 638 nM with Hepatitis C virus. Moreover, the CC50 at 72 h in data set [2] is more than 10 µM.

As for `O=C(Nc1ccc(CCCc2ccc(NC(=O)[C@@H]3CCCN3C(=O)Cc3ccccc3)cc2)cc1)[C@@H]1CCCN1C(=O)Cc1ccccc1`, the values for the EC50 (in data set [1]; with Hepatitis C virus) were more than 10 µM and 36.1 nM, respectively. For the same compound, the CC50 at 72 h in data set [2] was more than 10 µM.

Turning to `CN1Cc2cc(NC(=O)[C@@H]3CCCN3C(=O)Cc3ccccc3)ccc2CC1c1ccc(NC(=O)[C@@H]2CCCN2C(=O)Cc2ccccc2)cc1` (mixture of isomers), the solubility in data set [3] amounted to 135 µg/mL. In addition, the concentration giving a half-maximal response (EC50) in data set [1] was more than 10 µM; in the data set on Hepatitis C virus, 13.9 nM. Further, in data set [2], the CC50 at 72 h was more than 10 µM.
